Experimental findings from patent publication US11472791B2 (Incyte Corporation, priority 2019, dated 2022) are described below.

pIC50: −log10 of the molar value. Where only a bound is given, the exact number is not on record here.

The target in the assay is CDK2/Cyclin E1 (Homo sapiens (Human), UniProt P24941). As to the kind of experiment: CDK2/Cyclin E1 HTRF enzyme activity assay. The assay is classed as biochemical. Particulars: 1 mM ATP. As to the method: Assays are conducted in white 384-well polystyrene plates in a final reaction volume of 8 μL. […] HTRF signals are read after 1 hour at room temperature on a PHERAstar FS plate reader (BMG Labtech). Data is analyzed with IDBS XLFit and GraphPad Prism 5.0 software using a three or four parameter dose response curve to determine IC50 for each compound.
With `CS(=O)(=O)N1CCC(Nc2ncc(C#N)c(-c3cnn(-c4ccc(CN[C@H]5CC[C@@H](S(C)(=O)=O)CC5)cc4Cl)c3)n2)CC1` [Example 185, 4-(1-(2-Chloro-4-((((cis)-4-(methylsulfonyl)cyclohexyl)amino)methyl)phenyl)-1H-pyrazol-4-yl)-2-((1-(methylsulfonyl)piperidin-4-yl)amino)pyrimidine-5-carbonitrile], the pIC50 (as a rule, −log10 of the IC50, conventionally taken in molar units) was above 7.30.

Take `CC(C)(O)Cn1cc(-c2nc(NC3CCN(S(=O)(=O)C4CCC(N5CCC5)CC4)CC3)ncc2C(F)(F)F)cn1` (single isomer, unassigned) [90 (peak 2), 1-(4-(2-((1-((4-(Azetidin-1-yl)cyclohexyl)sulfonyl)piperidin-4-yl)amino)-5-(trifluoromethyl)pyrimidin-4-yl)-1H-pyrazol-1-yl)-2-methylpropan-2-ol]: the pIC50 was above 7.30.

Consider `Cn1cnc(S(=O)(=O)N2CCC(Nc3ncc(C#N)c(-c4cnn(CC(F)(F)F)c4)n3)CC2)c1` [Example 38, 2-((1-((1-Methyl-1H-imidazol-4-yl)sulfonyl)piperidin-4-yl)amino)-4-(1-(2,2,2-trifluoroethyl)-1H-pyrazol-4-yl)pyrimidine-5-carbonitrile], for which the pIC50 was above 7.30.

`CS(=O)(=O)N1CCC(Nc2ncc(C#N)c(-c3cnn(-c4ccc(CN[C@@H]5CC[C@@H](O)C5)cc4Cl)c3)n2)CC1` [Example 189, 4-(1-(2-Chloro-4-((((1R,3R)-3-hydroxycyclopentyl)amino)methyl)phenyl)-1H-pyrazol-4-yl)-2-((1-(methylsulfonyl)piperidin-4-yl)amino)pyrimidine-5-carbonitrile] gave a pIC50 above 7.30.

Turning to `C[C@]1(N)C[C@@H](n2cc(-c3nc(N[C@H]4CCN(S(=O)(=O)C5CCC5)C[C@H]4F)ncc3C(F)(F)F)cn2)C1` [Example 48, 4-(1-((1s,3r)-3-Amino-3-methylcyclobutyl)-1H-pyrazol-4-yl)-N-((3R,4S)-1-(cyclobutylsulfonyl)-3-fluoropiperidin-4-yl)-5-(trifluoromethyl)pyrimidin-2-amine], the negative-log IC50 (pIC50) was above 7.30.

In turn, `[2H]C([2H])([2H])NCc1ccc(-n2cc(-c3nc(NC4CCN(S(=O)(=O)C5CC5)CC4)ncc3C#N)cn2)c(Cl)c1` [Example 141, 4-(1-(2-Chloro-4-(((methyl-d3)amino)methyl)phenyl)-1H-pyrazol-4-yl)-2-((1-(cyclopropylsulfonyl)piperidin-4-yl)amino)pyrimidine-5-carbonitrile] had a pIC50 above 7.30.

`C[C@]1(NCc2ccc(-n3cc(-c4nc(N[C@H]5CCN(S(=O)(=O)C6CC6)C[C@H]5F)ncc4C#N)cn3)c(Cl)c2)C[C@H](O)C1` [Example 155, 4-(1-(2-chloro-4-((((1r,3r)-3-hydroxy-1-methylcyclobutyl)amino)methyl)phenyl)-1H-pyrazol-4-yl)-2-(((3R,4S)-1-(cyclopropylsulfonyl)-3-fluoropiperidin-4-yl)amino)pyrimidine-5-carbonitrile]: the pIC50 is above 7.30.

`CC(C)(O)Cn1cc(-c2nc(NC3CCN(S(=O)(=O)CCCN4C[C@@H]5C[C@H]4CO5)CC3)ncc2C(F)(F)F)cn1` [Example 222, 1-(4-(2-((1-((3-((1S,4S)-2-Oxa-5-azabicyclo[2.2.1]heptan-5-yl)propyl)sulfonyl)piperidin-4-yl)amino)-5-(trifluoromethyl)pyrimidin-4-yl)-1H-pyrazol-1-yl)-2-methylpropan-2-ol] had a pIC50 above 7.30.

Regarding `CS(=O)(=O)N1CCC(Nc2ncc(C#N)c(-c3cnn(-c4ccc(CN[C@H]5CC[C@@](C)(O)CC5)cc4Cl)c3)n2)CC1` [Example 173, 4-(1-(2-Chloro-4-((((1s,4s)-4-hydroxy-4-methylcyclohexyl)amino)methyl)phenyl)-1H-pyrazol-4-yl)-2-((1-(methylsulfonyl)piperidin-4-yl)amino)pyrimidine-5-carbonitrile], the pIC50 is above 7.30.

Consider `CO[C@H]1CC[C@H](n2cc(-c3nc(N[C@H]4CCN(S(=O)(=O)c5cn(C)cn5)C[C@H]4F)ncc3C(F)(F)F)cn2)CC1` [Example 43, N-((3R,4S)-3-Fluoro-1-((1-methyl-1H-imidazol-4-yl)sulfonyl)piperidin-4-yl)-4-(1-((trans)-4-methoxycyclohexyl)-1H-pyrazol-4-yl)-5-(trifluoromethyl)pyrimidin-2-amine], for which the negative logarithm of the IC50 (pIC50) was above 7.30.

Compound `CCN1CCN(Cc2ccc(-n3cc(-c4nc(NC5CCN(S(=O)(=O)c6cn(C)cn6)CC5)ncc4Cl)cn3)c(C)c2)CC1` [Example 245, 5-Chloro-4-(1-(4-((4-ethylpiperazin-1-yl)methyl)-2-methylphenyl)-1H-pyrazol-4-yl)-N-(1-((1-methyl-1H-imidazol-4-yl)sulfonyl)piperidin-4-yl)pyrimidin-2-amine] had a pIC50 above 7.30.

The compound `CC(C)(O)Cn1cc(-c2nc(NC3CCN(S(=O)(=O)CCCNC4CC4)CC3)ncc2C(F)(F)F)cn1` [Example 226, 1-(4-(2-((1-((3-(Cyclopropylamino)propyl)sulfonyl)piperidin-4-yl)amino)-5-(trifluoromethyl)pyrimidin-4-yl)-1H-pyrazol-1-yl)-2-methylpropan-2-ol] showed a pIC50 above 7.30.

In the case of `CC(C)(O)Cn1cc(-c2nc(N[C@H]3CCN(S(=O)(=O)CCCN4CCC(O)CC4)C[C@H]3F)ncc2C(F)(F)F)cn1` [Example 208, 1-(3-(((3R,4S)-3-Fluoro-4-((4-(1-(2-hydroxy-2-methylpropyl)-1H-pyrazol-4-yl)-5-(trifluoromethyl)pyrimidin-2-yl)amino)piperidin-1-yl)sulfonyl)propyl)piperidin-4-ol], the pIC50 is above 7.30.

`CC(C)(O)Cn1cc(-c2nc(NC3CCN(S(=O)(=O)CCCN4CCCC4)CC3)ncc2C(F)(F)F)cn1` [Example 66, 2-Methyl-1-(4-(2-((1-((3-(pyrrolidin-1-yl)propyl)sulfonyl)piperidin-4-yl)amino)-5-(trifluoromethyl)pyrimidin-4-yl)-1H-pyrazol-1-yl)propan-2-ol] showed a pIC50 above 7.30.

With `CS(=O)(=O)N1CCC(Nc2ncc(C#N)c(-c3cnn(-c4ccc(CNCCN5CCS(=O)(=O)CC5)cc4Cl)c3)n2)CC1` [Example 290, 4-(1-(2-Chloro-4-(((2-(1,1-dioxidothiomorpholino)ethyl)amino)methyl)phenyl)-1H-pyrazol-4-yl)-2-((1-(methylsulfonyl)piperidin-4-yl)amino)pyrimidine-5-carbonitrile], the pIC50 is above 7.30.

Compound `CCN1CCN(Cc2ccc(-n3cc(-c4nc(NC5CCN(S(=O)(=O)c6cn(C)cn6)CC5)ncc4C(F)(F)F)cn3)c(C)c2)CC1` [Example 235, 4-(1-(4-((4-Ethylpiperazin-1-yl)methyl)-2-methylphenyl)-1H-pyrazol-4-yl)-N-(1-((1-methyl-1H-imidazol-4-yl)sulfonyl)piperidin-4-yl)-5-(trifluoromethyl)pyrimidin-2-amine] had a pIC50 above 7.30.

Turning to `[2H]C([2H])([2H])NCc1ccc(-n2cc(-c3nc(N[C@H]4CCN(S(C)(=O)=O)C[C@H]4F)ncc3C#N)cn2)c(Cl)c1` [Example 143, 4-(1-(2-Chloro-4-(((methyl-d3)amino)methyl)phenyl)-1H-pyrazol-4-yl)-2-(((3R,4S)-3-fluoro-1-(methylsulfonyl)piperidin-4-yl)amino)pyrimidine-5-carbonitrile], the pIC50 was above 7.30.

Compound `CO[C@@H]1CCN(CCCS(=O)(=O)N2CC[C@H](Nc3ncc(C(F)(F)F)c(-c4cnn(CC(C)(C)O)c4)n3)[C@H](F)C2)C1` [Example 206, 1-(4-(2-(((3R,4S)-3-Fluoro-1-((3-((R)-3-methoxypyrrolidin-1-yl)propyl)sulfonyl)piperidin-4-yl)amino)-5-(trifluoromethyl)pyrimidin-4-yl)-1H-pyrazol-1-yl)-2-methylpropan-2-ol] gave a pIC50 above 7.30.

The compound `CO[C@H]1C[C@@H](NCc2ccc(-n3cc(-c4nc(NC5CCN(S(C)(=O)=O)CC5)ncc4C#N)cn3)c(Cl)c2)C1` [Example 163, 4-(1-(2-Chloro-4-((((1s,3s)-3-methoxycyclobutyl)amino)methyl)phenyl)-1H-pyrazol-4-yl)-2-((1-(methylsulfonyl)piperidin-4-yl)amino)pyrimidine-5-carbonitrile] gave a pIC50 above 7.30.

Compound `CNCc1ccc(-n2cc(-c3nc(NC4CCN(S(=O)(=O)c5cn(C)cn5)CC4)ncc3C#N)cn2)c(C)n1` [Example 126, 2-((1-((1-Methyl-1H-imidazol-4-yl)sulfonyl)piperidin-4-yl)amino)-4-(1-(2-methyl-6-((methylamino)methyl)pyridin-3-yl)-1H-pyrazol-4-yl)pyrimidine-5-carbonitrile] showed a pIC50 above 7.30.

`CS(=O)(=O)N1CCC(Nc2ncc(C#N)c(-c3cnn(-c4ccc(CN[C@H]5CC[C@](O)(C(F)(F)F)CC5)cc4Cl)c3)n2)CC1` [Example 177, 4-(1-(2-Chloro-4-((((1s,4s)-4-hydroxy-4-(trifluoromethyl)cyclohexyl)amino)methyl)phenyl)-1H-pyrazol-4-yl)-2-((1-(methylsulfonyl)piperidin-4-yl)amino)pyrimidine-5-carbonitrile] gave a pIC50 above 7.30.

`CC(C)(CO)NCc1ccc(-n2cc(-c3nc(NC4CCN(S(C)(=O)=O)CC4)ncc3C#N)cn2)c(Cl)c1` [Example 157, 4-(1-(2-Chloro-4-(((1-hydroxy-2-methylpropan-2-yl)amino)methyl)phenyl)-1H-pyrazol-4-yl)-2-((1-(methylsulfonyl)piperidin-4-yl)amino)pyrimidine-5-carbonitrile] had a pIC50 above 7.30.

As to `Cc1cc(CN(C)C)ccc1-n1cc(-c2nc(NC3CCN(S(=O)(=O)c4cn(C)cn4)CC3)ncc2C(F)(F)F)cn1` [Example 106, 4-(1-(4-((Dimethylamino)methyl)-2-methylphenyl)-1H-pyrazol-4-yl)-N-(1-((1-methyl-1H-imidazol-4-yl)sulfonyl)piperidin-4-yl)-5-(trifluoromethyl)pyrimidin-2-amine], the pIC50 was above 7.30.
